Where two headings read alike, the source gives them in different places.
Assays:
HIV-1 isolate: UG92046 = assay: p24 secretion of HIV-1-infected PBMCs; format: cell-based; conditions: for % p24 secretion Week 1-rb / % p24 secretion Week 2-rb / % p24 secretion Week 3-rb / % p24 secretion Week 4-rb: treatment removed 2 weeks
Experimental: (§1) Clearance of HIV-1 primary isolates from infected human cells by NB-DNJ was assessed using phytohemagglutinin (PHA)-activated peripheral blood mononuclear cells (PBMCs) as indicator cells and the determination of p24 antigen production as the end point.
(§2) PBMCs from four normal (uninfected) donors were isolated, pooled, and stimulated with PHA (5 μg/ml) for 48 h followed by PHA plus interleukin-2 (40 U/ml) for 72 h in RPMI 1640 medium containing 10% heat-inactivated fetal bovine serum (FBS), 100 U of penicillin per ml, 100 μg of streptomycin per ml, and 2 mM L-glutamine. All experiments were performed in 96-well microtiter plates. To infect cells, 100 μl of PHA-activated PBMCs (5×10^5/ml) was added to each well, after which an equal volume containing 100 50% tissue culture infective doses (TCID50) of primary isolate stock was added. After an overnight incubation, the cells were washed three times with tissue culture medium, and finally re-suspended in medium containing the appropriate liposome treatment or free NB-DNJ. On day 7, approximately 10-30% of the culture volume containing secreted HIV-1 virions was used to infect naïve PBMCs for a second round of infection and treatment (volume transferred was calculated to be the volume necessary for the untreated control of that isolate to infect naïve cells at a TCID50=100). Rounds of treatment and infection of naïve cells were continued over four weeks, and at every time point cellular supernatant containing secreted virions was isolated and used in capture ELISAs to determine p24 concentration (measure of secretion). Additionally, supernatant isolated at each time point throughout treatment was used to infect naïve PBMCs (TCID50=100) for two weeks with no further treatment, which allowed for the observation of a rebound in viral activity.
(§3) PBMCs infected with 8 primary isolates (listed in Table 3) were incubated in the presence of free NB-DNJ (concentrations ranging 0-1 mM) or liposome-encapsulated NB-DNJ (0-3.75 μM, final lipid concentration of 50 μM).

HIV-1 isolate: BR93020 = assay: p24 secretion of HIV-1-infected PBMCs; format: cell-based; conditions: for % p24 secretion Week 1-rb / % p24 secretion Week 2-rb / % p24 secretion Week 3-rb / % p24 secretion Week 4-rb: treatment removed 2 weeks
Experimental: as §1, §2, §3

cp BVDV = assay: Yield reduction (plaque) assay; format: cell-based, bovine viral diarrhea virus; conditions: for IC50: Bovine viral diarrhea virus isolates and strains, read-out: IC50, secretion of infectious BVDV
Experimental: The antiviral effect of liposome-included NB-DNJ was also tested against the cp BVDV, using the yield reduction assay, a method which takes advantage of the cp strain being able to form plaques on monolayers of infected cells.
FIG. 7 represents the effect of free vs. DC liposome-encapsulated NB-DNJ, on secretion of infectious cp BVDV. MDBK cells infected with cp BVDV were treated for 3 days with either free or DC liposome-NB-DNJ, so that the final NB-DNJ concentrations ranged between 0 and 500 μM and the total lipid concentration was 100 μM. The supernatants were then removed and used to infect fresh MDBK monolayers in six-well plates. After 3 days the plaques were counted under the microscope (plaque assay) and the results were expressed as a percentage of the number of plaques resulting from infection with no drug supernatant (=100%) (x axis). The y axis indicates the free or DC liposome-included NB-DNJ concentrations used in the plaque assay. The IC50 is indicated at the bottom of the graph.

ncp BVDV = assay: BVDV secretion from infected MDBK cells, real-time PCR; format: cell-based, bovine viral diarrhea virus; conditions: 750 nM, 3 days
Experimental: In a first study using the ncp strain of BVDV, NB-DNJ was added freely to the culture medium, so that final concentrations ranged between 0 and 750 nM. In separate incubations, NB-DNJ DCPP liposomes were added so that the final lipid concentration was 50 μM and final concentrations of NB-DNJ ranged between 0 and 750 nM. Experiments were carried out in duplicate in 6-well plates. The quantity of secreted BVDV viral particles was measured following 3 days of incubation. Virus secretion analysis was performed by quantitative PCR (real-time PCR) on viral RNA extracted from 500 μl of supernatant. Real-time PCR used primers directed against the ncp BVDV RNA where the forward primer sequence was […] (SEQ ID NO:1), and the reverse primer sequence was […] (SEQ ID NO:2). Results are expressed as the percentage of RNA copies present in treated samples as compared to the untreated control (=100% on the x axis).

[1] = Human immunodeficiency virus 1, PBMC, free, three rounds of treatment

## CCCCN1C[C@H](O)[C@@H](O)[C@H](O)[C@H]1CO [NB-DNJ, N-butyl-1,5-dideoxy-1,5-imino-D-glucitol]
HIV-1 isolate: UG92046; NB-DNJ 250 uM
  % p24 secretion Week 1: 91%
  % p24 secretion Week 2: 115%
  % p24 secretion Week 3: 91%
  % p24 secretion Week 4: 79%
  % p24 secretion Week 1-rb: 99%
  % p24 secretion Week 2-rb: 92%
  % p24 secretion Week 3-rb: 94%
  % p24 secretion Week 4-rb: 89%
HIV-1 isolate: UG92046; NB-DNJ 500 uM
  % p24 secretion Week 1: 79%
  % p24 secretion Week 2: 39%
  % p24 secretion Week 3: 10%
  % p24 secretion Week 4: 0%
  % p24 secretion Week 1-rb: 75%
  % p24 secretion Week 2-rb: 43%
  % p24 secretion Week 3-rb: 15%
  % p24 secretion Week 4-rb: 0%
HIV-1 isolate: UG92046; NB-DNJ 1000 uM
  % p24 secretion Week 1: 64%
  % p24 secretion Week 2: 15%
  % p24 secretion Week 3: 3%
  % p24 secretion Week 4: 0%
  % p24 secretion Week 1-rb: 64%
  % p24 secretion Week 2-rb: 21%
  % p24 secretion Week 3-rb: 1%
  % p24 secretion Week 4-rb: 0%
HIV-1 isolate: BR93020; [1]
  IC50: 250 µM
  IC90: 375 µM
HIV-1 isolate: BR93020; NB-DNJ 250 uM
  % p24 secretion Week 1: 89%
  % p24 secretion Week 2: 74%
  % p24 secretion Week 3: 53%
  % p24 secretion Week 4: 55%
  % p24 secretion Week 1-rb: 97%
  % p24 secretion Week 2-rb: 77%
  % p24 secretion Week 3-rb: 71%
  % p24 secretion Week 4-rb: 59%
HIV-1 isolate: BR93020; NB-DNJ 500 uM
  % p24 secretion Week 1: 60%
  % p24 secretion Week 2: 19%
  % p24 secretion Week 3: 1%
  % p24 secretion Week 4: 1%
  % p24 secretion Week 1-rb: 68%
  % p24 secretion Week 2-rb: 3%
  % p24 secretion Week 3-rb: 0%
  % p24 secretion Week 4-rb: 1%
HIV-1 isolate: BR93020; NB-DNJ 1000 uM
  % p24 secretion Week 1: 58%
  % p24 secretion Week 2: 2%
  % p24 secretion Week 3: 0%
  % p24 secretion Week 4: 0%
  % p24 secretion Week 1-rb: 44%
  % p24 secretion Week 2-rb: 0%
  % p24 secretion Week 3-rb: 0%
  % p24 secretion Week 4-rb: 0%
Cp BVDV
  better inhibition, DC liposomes vs free: 8 fold
Cp BVDV; free drug
  IC50: 175 µM
Cp BVDV; included in DC liposomes, total lipid 100 μM
  IC50: 20 µM
Ncp BVDV; DCPP liposome-mediated delivery
  decrease in number of secreted viral particles: 2 fold
Ncp BVDV; free delivery
  effect on number of secreted viral particles: no effect

— patent publication US20110182982A1, “LIPOSOME TREATMENT OF VIRAL INFECTIONS” (University of Oxford, priority 2006, published 2011)
